The values below are quoted from earlier work in US9592310B1 (priority 2004, dated 2017).

As for `[O][Cl+][O-]` [Chlorine dioxide], the “concentration at which chlorine dioxide is stable in water and aqueous solutions” value is “approximately 10 grams per Liter”.
